# From US20070276011A1, “Plasminogen Activator Inhibitor-1 Inhibitor” (priority 2003, published 2007)
# Target: recombinant human PAI-1 (Homo sapiens, UniProt P05121)
# Test: PAI-1 inhibitory activity, Test Method A (tPA fluorogenic substrate, Tris buffer pH8.0, 37 C)
# Type: biochemical
# Settings: test compound 25 μM; Test Method A
# Experimental: To this solution, 50 μL solution of 400 μM fluogenic substrate for tPA (Pyr-Gly-Arg-MCA, Peptide Institute, Inc.) adjusted with the same buffer was added, and reacted for 30 minutes at 37° C. The reaction was stopped by adding 50 μL of 2% acetic acid. Fluorescence was measured at the excitation wavelength=360 nm, emission wavelength=460 or 465 nm using a microplate reader (SPECTRAFLUOR or GENios) by TECAN. The fluorescence intensities in the presence of the PAI-1 as the control (DMSO) or in the absence of the PAI-1 (tPA alone) were taken as 100% and 0% of PAI-1 activities, respectively, and inhibitory ratios of PAI-1 activities in the presence of the test compound were obtained.
# <Composition of the Tris Buffer (pH8.0)>
# Sequence of recombinant human PAI-1 (P05121 24-402): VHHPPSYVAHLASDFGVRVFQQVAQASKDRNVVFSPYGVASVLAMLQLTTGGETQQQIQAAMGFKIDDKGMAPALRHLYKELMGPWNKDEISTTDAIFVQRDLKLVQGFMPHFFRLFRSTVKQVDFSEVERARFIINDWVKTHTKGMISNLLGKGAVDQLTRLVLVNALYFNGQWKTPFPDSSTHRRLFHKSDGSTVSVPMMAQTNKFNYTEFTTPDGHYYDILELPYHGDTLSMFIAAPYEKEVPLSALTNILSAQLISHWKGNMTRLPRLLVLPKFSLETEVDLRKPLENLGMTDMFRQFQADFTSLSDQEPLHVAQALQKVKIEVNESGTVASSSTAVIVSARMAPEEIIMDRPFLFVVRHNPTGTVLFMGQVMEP
row,SMILES,Inhibitory Ratio at 25 μM (%)
1,"O=C(CN1C(=O)SC(=Cc2ccc(O)c(O)c2)C1=O)c1ccc(Cl)cc1Cl [compound 92, 5-(3,4-Dihydroxybenzylidene)-3-[(2,4-dichlorobenzoyl)-methyl]thiazolidine-2,4-dione]",>99
2,O=C1C(=Cc2cc(Br)cc(Br)c2O)C(O)=NN1c1ccccc1 [compound 101],28
3,CC1=NN(c2ccc(Cl)c(Cl)c2)C(=O)C1=Cc1cc(Br)ccc1O [compound 102],63
4,CCOc1cc(C=C2C(=O)N(c3cccc(C(=O)O)c3)N=C2C)ccc1OC(=O)c1cccs1 [compound 103],>99
5,"CC(C)C1=NN(c2cc(Cl)cc(Cl)c2)C(=O)C1=Cc1cccc(O)c1O [compound 104, 4-(2,3-Dihydroxybenzylidene)-1-(3,5-dichlorophenyl)-3-isopropyl-2-pyrazolin-5-one]",92
6,CC(C)C1=NN(c2cc(Cl)cc(Cl)c2)C(=O)C1=Cc1cc(Br)cc(Br)c1O [compound 105],>99
7,CC(C)C1=NN(c2cc(Cl)cc(Cl)c2)C(=O)C1=Cc1ccc(O)c(C(=O)O)c1 [compound 106],>99
8,CC(C)C1=NN(c2cc(Cl)cc(Cl)c2)C(=O)C1=Cc1ccc(O)c(O)c1 [compound 107],>99
9,"COC(=O)c1cccc(N2N=C(C(C)C)C(=Cc3cc(Br)cc(Br)c3O)C2=O)c1 [compound 108, 4-(3,5-Dibromo-2-hydroxybenzylidene)-1-[3-(Methoxycarbonyl)phenyl]-3-isopropyl-2-pyrazolin-5-one]",27
10,"CC1=NN(c2cc(Cl)cc(Cl)c2)C(=O)C1=Cc1ccc(O)c(O)c1 [compound 112, 4-(3,4-Dihydroxybenzylidene)-1-(3,5-dichlorophenyl)-3-methyl-2-pyrazolin-5-one]",>99
11,CC1=NN(c2cccc(C(F)(F)F)c2)C(=O)C1=Cc1ccc(O)c(O)c1 [compound 113],68
12,CCOC1=NN(c2ccc([N+](=O)[O-])cc2)C(=O)C1=Cc1ccc(O)c(O)c1 [compound 116],>99
13,CC1=NN(c2cccc(Cl)c2)C(=O)C1=Cc1ccc(O)c(O)c1 [compound 117],46
14,"CC(C)C1=NN(c2cc(C(F)(F)F)cc(C(F)(F)F)c2)C(=O)C1=Cc1ccc(O)c(O)c1 [compound 118, 4-(3,4-Dihydroxybenzylidene)-1-[3,5-bis(trifluoromethyl)phenyl]-3-isopropyl-2-pyrazolin-5-one]",>99
15,"Cc1ccc(N2N=C(C(C)C)C(=Cc3ccc(O)c(O)c3)C2=O)cc1Cl [compound 119, 4-(3,4-Dihydroxybenzylidene)-1-(3-chloro-4-methylphenyl)-3-isopropyl-2-pyrazolin-5-one]",>99
16,Cc1ccc(N2N=C(C(C)C)C(=Cc3cccc(O)c3)C2=O)cc1Cl [compound 121],80
17,CC1=NN(c2cccc(C(F)(F)F)c2)C(=O)C1=Cc1cccc(O)c1 [compound 122],35
18,CC1=NN(c2cccc(Cl)c2)C(=O)C1=Cc1cc(O)c(O)c(O)c1 [compound 123],67
19,COc1cc(C=C2C(=O)N(c3cccc(Cl)c3)N=C2C)cc(O)c1O [compound 124],33
20,"Cc1cccc(N2N=C(C(C)C)C(=Cc3ccc(O)c(O)c3)C2=O)c1 [compound 125, 4-(3,4-Dihydroxybenzylidene)-1-(3-methylphenyl)-3-isopropyl-2-pyrazolin-5-one]",38
21,COc1cccc(N2N=C(C(C)C)C(=Cc3ccc(O)c(O)c3)C2=O)c1 [compound 126],44
22,"O=C1C(=Cc2ccc(O)c(O)c2)C(c2ccccc2)=NN1c1cc(Cl)cc(Cl)c1 [compound 129, 4-(3,4-Dihydroxybenzylidene)-1-(3,5-dichlorophenyl)-3-phenyl-2-pyrazolin-5-one]",>99
23,CC(C)C1=NN(c2cc(Cl)cc(Cl)c2)C(=O)C1=Cc1cc(O)c(O)c(O)c1 [compound 130],>99
24,O=C1C(=Cc2cc(O)c(O)c(O)c2)C(c2ccccc2)=NN1c1cc(Cl)cc(Cl)c1 [compound 131],>99
25,CCOC1=NN(c2ccc([N+](=O)[O-])cc2)C(=O)C1=Cc1cc(O)c(O)c(O)c1 [compound 132],>99
26,CC(C)(C)C1=NN(c2ccccc2)C(=O)C1=Cc1ccc(O)c(O)c1 [compound 133],55

row,SMILES,Inhibitory Ratio at 25 μM (%)
1,"CC(C)C1=NN(c2ccc(Cl)c(Cl)c2)C(=O)C1=Cc1cc(O)c(O)c(O)c1 [compound 134, 4-(3,4,5-Trihydroxybenzylidene)-1-(3,4-dichlorophenyl)-3-isopropyl-2-pyrazolin-5-one]",>99
2,CC1=NN(c2ccc([N+](=O)[O-])cc2)C(=O)C1=Cc1cc(O)c(O)c(O)c1 [compound 135],94
3,O=C1C(=Cc2ccc(O)c(O)c2)C(C(F)(F)F)=NN1c1cccc([N+](=O)[O-])c1 [compound 137],>99
4,"CC(C)(C)C1=NN(c2cc(Cl)cc(Cl)c2)C(=O)C1=Cc1ccc(O)c(O)c1 [compound 138, 4-(3,4-Dihydroxybenzylidene)-1-(3,5-dichlorophenyl)-3-(tert-butyl)-2-pyrazolin-5-one]",>99
5,CC(C)(C)C1=NN(c2cc(Cl)cc(Cl)c2)C(=O)C1=Cc1cc(O)c(O)c(O)c1 [compound 139],>99
6,CC(C)C1=NN(c2ccc(Cl)c(Cl)c2)C(=O)C1=Cc1ccc(O)c(O)c1 [compound 140],>99
7,CC(C)C1=NN(c2cc(Cl)cc(Cl)c2)C(=O)C1=Cc1ccc(O)c(O)c1O [compound 142],>99
8,CC1=NN(c2cc(Cl)cc(Cl)c2)C(=O)C1=Cc1cc(O)c(O)c(O)c1 [compound 143],>99
9,"CC1=NN(c2ccc(Cl)c(Cl)c2)C(=O)C1=Cc1cc(O)c(O)c(O)c1 [compound 144, 4-(3,4,5-Trihydroxybenzylidene)-1-(3,4-dichlorophenyl)-3-methyl-2-pyrazolin-5-one]",53
10,O=C1C(=Cc2cc(O)c(O)c(O)c2)C(c2ccccc2)=NN1c1ccc(Cl)c(Cl)c1 [compound 146],>99
11,"O=C1C(=Cc2ccc(O)c(O)c2)C(C(F)(F)F)=NN1c1cc(Cl)cc(Cl)c1 [compound 147, 4-(3,4-Dihydroxybenzylidene)-1-(3,5-dichlorophenyl)*3-trifluoromethyl-2-pyrazolin-5-one]",>99
12,O=C1C(=Cc2ccc(O)c(O)c2O)C(c2ccccc2)=NN1c1ccc(Cl)c(Cl)c1 [compound 148],62
13,O=C1C(=Cc2cc(O)c(O)c(O)c2)C(C(F)(F)F)=NN1c1cc(Cl)cc(Cl)c1 [compound 149],>99
14,O=C1C(=Cc2ccc(O)c(O)c2O)C(C(F)(F)F)=NN1c1cc(Cl)cc(Cl)c1 [compound 150],>99
15,O=C1C(=Cc2cc(O)c(O)cc2O)C(C(F)(F)F)=NN1c1cc(Cl)cc(Cl)c1 [compound 151],>99
16,CC1=NN(c2ccc(Cl)c(Cl)c2)C(=O)C1=Cc1ccc(O)c(O)c1 [compound 152],89
17,"COC(=O)c1cccc(N2N=C(c3ccccc3)C(=Cc3ccc(O)c(O)c3)C2=O)c1 [compound 154, 4-(3,4-Dihydroxybenzylidene)-1-[3-(methoxycarbonyl)phenyl]-3-phenyl-2-pyrazolin-5-one]",>99
18,CCOC1=NN(c2ccc([N+](=O)[O-])cc2)C(=O)C1=Cc1ccc(O)c(O)c1O [compound 155],39
19,Cc1cccc(N2N=C(C(C)C)C(=Cc3cc(O)c(O)c(O)c3)C2=O)c1 [compound 157],37
20,CC1=NN(c2cccc(Cl)c2)C(=O)C1=Cc1cc(O)c(O)cc1O [compound 158],72
21,CCOc1cc(C=C2C(=O)N(c3cccc(C(F)(F)F)c3)N=C2C)ccc1OCC(=O)O [compound 159],32
22,COC(=O)c1cccc(-c2ccc(C=C3C(=O)N(c4ccc(F)cc4)N=C3O)o2)c1 [compound 160],50
23,O=C(O)c1cccc(N2N=C(C(F)(F)F)C(=Cc3ccc(-c4cc(Cl)cc(Cl)c4)o3)C2=O)c1 [compound 162],56
24,CC1=NN(c2ccccc2)C(=O)C1=Cc1ccc(-c2cc(C(=O)O)ccc2Cl)o1 [compound 163],54
25,O=C1C(=Cc2ccc(-c3cc([N+](=O)[O-])ccc3O)o2)C(O)=NN1c1cccc(Cl)c1 [compound 165],29
